Calls of active or inactive are those of the source. No cut-off for these calls is given here.
Columns and labels:
[1] = system: SK-HEP1; test: Antiproliferative activity against human SK-HEP1 cells overexpressing TRBP at 20 uM measured by crystal violet dye based colony formation assay; assay type: functional, cell-based
[2] = system: HepG2; test: Antiproliferative activity against human HepG2 cells at 25 uM incubated for 24 hrs by alamar blue assay; assay type: functional, cell-based
[3] = system: SK-HEP1; test: Inhibition of epithelial-mesenchymal transition in human SK-HEP1 cells assessed as change in N-cadherin expression at 10 to 50 uM incubated for 24 hrs by Western blot analysis; assay type: functional, cell-based; details: dose 10-50 µM
[4] = system: Mus musculus; test: Downregulation of CDC20 expression in mouse liver at 40 mg/kg measured after 30 days by immunohistochemical staining analysis; assay type: functional, organism-based; details: time 30.0 day
[5] = system: HepG2; test: Antiproliferative activity against human HepG2 cells incubated for 24 hrs by alamar blue assay; details: HepG2, 24 h
[6] = system: SK-HEP1; test: Inhibition of cell migration in human SK-HEP1 cells at 30 uM incubated for 12 hrs by crystal violet staining based transwell assay; assay type: functional
[7] = system: MHCC97; test: Antitumor activity in human MHCC97 cells xenografted in SCID mouse assessed as reduction in infiltration of inflammatory cells in left middle lobe of liver at 40 mg/kg, ip measured after 30 days by H and E staining based immunohistochemical analysis; assay type: functional, organism-based; details: time 30.0 day
[8] = system: SK-HEP1; test: Effect on human SK-HEP1 cells assessed as increase in miR-146a-5p level by qRT-PCR analysis; assay type: functional, cell-based
[9] = system: HeLa; test: Antiproliferative activity against human HeLa cells assessed as increase in miR-21 biogenesis level measured after 24 hrs by luciferase assay; assay type: functional, cell-based
[10] = system: Mus musculus; test: Downregulation of TPX2 expression in mouse liver at 40 mg/kg measured after 30 days by immunohistochemical staining analysis; assay type: functional, organism-based; details: time 30.0 day
[11] = system: SK-HEP1; test: Effect on TRBP protein expression in human SK-HEP1 cells at 30 uM after 24 hrs by immunoblot analysis; assay type: functional, cell-based
[12] = system: SK-HEP1; test: Antiproliferative activity against human SK-HEP1 cells assessed as increase in miR-452-5p level at 20 uM by qRT-PCR analysis; assay type: functional, cell-based
[13] = system: HeLa; test: Antiproliferative activity against human HeLa cells at 25 uM incubated for 24 hrs by alamar blue assay; assay type: functional, cell-based
[14] = system: MHCC97; test: Antimetastatic activity against human MHCC97 cells xenografted in SCID mouse assessed as decrease in liver metastasis at 40 mg/kg, ip administered once every 3 days and measured after 10 days; assay type: functional, organism-based; details: time 10.0 day
[15] = system: SK-HEP1; test: Antiproliferative activity against human SK-HEP1 cells knockdown TRBP at 20 uM measured by crystal violet dye based colony formation assay; assay type: functional, cell-based
[16] = system: SK-HEP1; test: Effect on human SK-HEP1 cells assessed as decrease in miR-10b-5p level at 10 to 50 uM by qRT-PCR analysis; assay type: functional, cell-based; details: dose 10-50 µM

With `COc1cc2c(c(O)c1OC)-c1c(cc3c(c1OC)OCO3)C[C@H](C)[C@H](C)C2` the Activity [1] was “Active”, the Activity [2] was “Active” and the inhibition [3] was “inactive”. The Activity [4] was “Active”, the IC50 [5] was 27.3 µM and the inhibition [6] was “Active”. The Activity [7] was “Active”, the Activity [8] was “Dose-Dependent Effect” and the IC50 [9] was 17.2 µM. The Activity [10] was “Active”, the Activity [11] was “inactive” and the Activity [12] was “inactive”. The Activity [13] was “Active”, the Activity [14] was “Active” and the Activity [15] was “inactive”. For the same compound, the Activity [16] was “Active”.
